What was measured:
[1] = system: HR+, HER2− metastatic or loco-regionally recurrent breast cancer; test: SERENA-2 phase 2 study: progression free survival (PFS), RECIST 1.1, assessed by Investigator; format: in vivo, human (post-menopausal women)
Excerpt: In embodiments of the present speciation the method of treatments, ngSERD for use in treatment or for use in the manufacture of a medicament, kit or pharmaceutical composition for use delivers an improvement in the time to disease progression or progression free survival (PFS) relative to that obtained from use of fulvestrant (the first generation SERD). In such embodiment the PFS improvement is relative to that observed with standard of care, i.e. fulvestrant administered at the approved dose of 500 mg once monthly by injection. Clinical activity as assessed by PFS can be determined by the standard assessment of tumour response as per RECIST 1.1 (Eisenhauser et al., Eur J Cancer 2009 January; 45(2):228-47). The RECIST criteria can be evaluated by the treating physician/investigator or by Blinded Independent Central Review (BICR).
In the SERENA-2 clinical trial, further details of which are provided below, the efficacy of camizestrant administered once daily in tablet form at doses of 75 mg and 150 mg as a treatment for patients with HR+, HER2− metastatic or loco-regionally recurrent breast cancer that the breast cancer has recurred or progressed following at least one prior line of endocrine therapy was assessed. The control arm patient in this study were treated with standard of care fulvestrant, the first generation SERD, administered as once monthly 500 mg injection. The study was powered to differentiate between the camizestrant and standard of care, fulvestrant (F), treatment arms, but was not powered to differentiate between the 75 mg and 150 mg camizestrant dose cohorts.
A randomised, open-label, parallel-group, multicentre phase 2 study comparing the efficacy and safety of oral AZD9833 versus fulvestrant in women with advanced er-positive her2-negative breast cancer was carried out according to the following protocol and schedule of activities. The study evaluated the efficacy and safety of AZD9833 (75, 150 and 300 mg, oral [PO]) administered once daily as a monotherapy in comparison with fulvestrant administered according to its label (i. e., slow IM injection into the buttocks [1 to 2 minutes per injection] as two 5-mL injections, 1 in each buttock, on Day 1, Day 15, Day 29 and 4-weekly thereafter).
This is a randomised, open-label, parallel-group, multicentre Phase 2 study to compare the efficacy and safety of daily PO AZD9833 versus IM fulvestrant in women with advanced ER positive HER2 negative breast cancer. Post-menopausal women with histologically or cytologically confirmed metastatic or loco-regionally recurrent disease before randomisation and fulfilling all of the inclusion criteria and none of the exclusion criteria will be included. Randomisation will be stratified according to the prior use of CDK4/6 inhibitors and the presence of liver and/or lung metastases.
After the screening visit and confirmation of eligibility, patients will be randomly assigned in a 1:1:1:1 ratio to receive 1 of the following 4 treatments, consisting in 4-week treatment cycles until disease progression (assessed by the Investigator as defined by Response Evaluation Criteria in Solid Tumours [RECIST] version 1.1): • AZD9833 (75 mg, PO, once daily) • AZD9833 (150 mg, PO, once daily) • AZD9833 (300 mg, PO, once daily) • Fulvestrant (500 mg IM, Day 1, Day 15, Day 29, and 4-weekly thereafter)
Efficacy assessments. Assessment of tumour response. The assessment of tumour response per RECIST version 1.1 will be used to determine the clinical activity (assessed by PFS) and anti-tumour activity (assessed by ORR, clinical benefit rate [CBR]) of AZD9833 and fulvestrant.
Investigator's assessment of tumour response per RECIST version 1.1. Tumour response will be assessed by the Investigators per RECIST version 1.1 (Eisenhauer et al. 2009). From the Investigator's review of the imaging scans, the evaluation of TLs, NTLs and new lesions will be used to determine the overall visit response for each patient. […]

[2] = system: HR+, HER2− metastatic or loco-regionally recurrent breast cancer; test: SERENA-2 phase 2 study: objective response rate (ORR), patients with measurable disease; format: in vivo, human (post-menopausal women); conditions: for Number of patients with response: includes unconfirmed responses; for Adjusted response rate (%): logistic regression, factors prior CDK4/6 inhibitor and lung and/or liver metastasis; for (%) of patients with response: patients with measurable disease; for ORR: comparison against fulvestrant, odds ratio: odds ratio > 1 favors AZD9833
Excerpt: In embodiments the specification provides a method of treatment of hormone receptor positive (HR+), human epidermal growth factor receptor 2 negative (HER2−), metastatic or loco-regionally recurrent breast cancer, comprising administering camizestrant to a patient suffering from such cancer, characterised in that the cancer has recurred or progressed following at least one prior line of endocrine therapy, wherein the treatment delivers an improvement in objective response rate (ORR) relative to that obtainable with fulvestrant treatment. The ORR is defined as the percentage of patients with at least 1 Investigator-assessed visit response of complete response (CR) or partial response (PR) prior to any evidence of progression. Complete or partial responses are assessed according to the RECIST 1.1 criteria as detailed below. In embodiments the ORR derived from the method of treatment is at least 15.7%, for example 20.3%.
A complete response denotes the disappearance of all target lesions (TLs) since baseline. Any pathological lymph nodes selected as TLs must have a reduction in short axis to <10 mm. A partial response denotes an at least a 30% decrease in the sum of the diameters of TL, taking as reference the baseline sum of diameters. […] Further information on the evaluation of target and non-target lesions is provided below.
The objective response rate (ORR) will be compared between AZD9833 (each dose level) and fulvestrant using a logistic regression model adjusting for prior use of CDK4/6 inhibitors and presence of lung and/or liver metastases.
Secondary endpoints: objective response rate. The ORR is defined as the percentage of patients with at least 1 Investigator-assessed visit response of CR or PR prior to any evidence of progression. The ORR will be based on a subset of the FAS with measurable disease at baseline.
The ORR will be compared between AZD9833 (each dose level) and fulvestrant using a logistic regression model adjusting for prior use of CDK4/6 inhibitors and presence of lung and/or liver metastases. The results of the analysis will be presented in terms of an odds ratio for each treatment comparison together with its associated profile likelihood 90% CI and 2 sided p values (based on twice the change in log-likelihood resulting from the addition of a treatment factor to the model).

[3] = fulvestrant 500 mg once monthly injection, all patients, by Investigator
[4] = fulvestrant 500 mg, ESR1m subgroup
[5] = fulvestrant 500 mg, subgroup with metastases to the liver and/or lungs
[6] = fulvestrant 500 mg, subgroup with prior CDK4/6 inhibitor therapy
[7] = camizestrant 75 mg once daily, all patients, by Investigator
[8] = camizestrant 75 mg, subgroup with metastases to the liver and/or lungs
[9] = camizestrant 75 mg, subgroup with prior CDK4/6 inhibitor therapy
[10] = camizestrant 150 mg once daily, all patients, by Investigator
[11] = camizestrant 150 mg, subgroup with metastases to the liver and/or lungs
[12] = camizestrant 150 mg, subgroup with prior CDK4/6 inhibitor therapy

Structure (SMILES): C[C@]12CC[C@@H]3c4ccc(O)cc4C[C@@H](CCCCCCCCC[S+]([O-])CCCC(F)(F)C(F)(F)F)[C@H]3[C@@H]1CC[C@@H]2O (some centres unmarked) [fulvestrant, reference compound]
- PFS events [no.] ([1]; fulvestrant 500 mg (n = 35), subgroup with mutation to the estrogen receptor (ESR1m)): 31
- PFS events [n] ([1]; fulvestrant 500 mg (n = 37), subgroup with prior CDK4/6 inhibitor therapy): 33
- PFS events [no.] ([1]; fulvestrant 500 mg (n = 43), subgroup with metastases to the liver and/or lungs): 39
- Median PFS [1, 3]: 3.7 months
- Proportion of patients without progression at 12 m [1, 3]: 23.8%
- Median PFS [1, 4]: 2.2 months
- PFS events (%) [1, 4]: (88.6) %
- Median PFS [1, 5]: 2.0 months
- PFS events (%) [1, 5]: (90.7) %
- Median PFS [1, 6]: 2.1 months
- PFS events (%) [1, 6]: (89.2) %
- Number of patients with response ([2]; fulvestrant, N=68 with measurable disease): 8
- Adjusted response rate (%) ([2]; fulvestrant): 11.5%
- (%) of patients with response ([2]; fulvestrant): (11.8) %

Structure (SMILES): C[C@@H]1Cc2c(ccc3[nH]ncc23)[C@@H](c2ccc(NC3CN(CCCF)C3)cn2)N1CC(F)(F)F [camizestrant, N-(1-(3-fluoropropyl)azetidin-3-yl)-6-((6S,8R)-8-methyl-7-(2,2,2-trifluoroethyl)-6,7,8,9-tetrahydro-3H-pyrazolo[4,3-f]isoquinolin-6-yl)pyridin-3-amine]
- PFS events [no.] ([1]; AZD9833 75 mg (n = 22), subgroup with mutation to the estrogen receptor (ESR1m)): 15
- Hazard ratio vs fulvestrant ([1]; AZD9833 75 mg, ESR1m subgroup): 0.33
- Median PFS ([1]; AZD9833 75 mg, ESR1m subgroup): 6.3 months
- PFS events (%) ([1]; AZD9833 75 mg, ESR1m subgroup): (68.2) %
- PFS events [no.] ([1]; AZD9833 150 mg (n = 26), subgroup with mutation to the estrogen receptor (ESR1m)): 22
- Hazard ratio vs fulvestrant ([1]; AZD9833 150 mg, ESR1m subgroup): 0.55
- Median PFS ([1]; AZD9833 150 mg, ESR1m subgroup): 9.2 months
- PFS events (%) ([1]; AZD9833 150 mg, ESR1m subgroup): (84.6) %
- Improvement of PFS over fulvestrant ([1]; both camizestrant arms (75 mg and 150 mg), all comer population, by either Investigator or BICR): at least 3.5 months
- PFS events [n] ([1]; camizestrant 75 mg (n = 38), subgroup with prior CDK4/6 inhibitor therapy): 29
- PFS events [no.] ([1]; camizestrant 75 mg (n = 43), subgroup with metastases to the liver and/or lungs): 31
- Hazard ratio for disease progression relative to fulvestrant [1, 7]: 0.58
- Proportion of patients without progression at 12 m [1, 7]: 34.3%
- Median PFS ([1]; camizestrant 75 mg tablet once daily, all patients, by Investigator): 7.2 months
- Hazard ratio vs fulvestrant [1, 8]: 0.43
- Median PFS [1, 8]: 7.2 months
- PFS events (%) [1, 8]: (72.1) %
- Hazard ratio vs fulvestrant [1, 9]: 0.49
- Median PFS [1, 9]: 5.5 months
- PFS events (%) [1, 9]: (76.3) %
- PFS events [n] ([1]; camizestrant 150 mg (n = 37), subgroup with prior CDK4/6 inhibitor therapy): 29
- PFS events [no.] ([1]; camizestrant 150 mg (n = 43), subgroup with metastases to the liver and/or lungs): 32
- Hazard ratio for disease progression relative to fulvestrant [1, 10]: 0.67
- Proportion of patients without progression at 12 m [1, 10]: 44.5%
- Median PFS ([1]; camizestrant 150 mg tablet once daily, all patients, by Investigator): 7.7 months
- Hazard ratio vs fulvestrant [1, 11]: 0.55
- Median PFS [1, 11]: 5.6 months
- PFS events (%) [1, 11]: (74.4) %
- Hazard ratio vs fulvestrant [1, 12]: 0.68
- Median PFS [1, 12]: 3.8 months
- PFS events (%) [1, 12]: (78.4) %
- Number of patients with response ([2]; AZD9833 75 mg, N=70 with measurable disease): 11
- Adjusted response rate (%) ([2]; AZD9833 75 mg): 15.7%
- ORR: comparison against fulvestrant, odds ratio ([2]; AZD9833 75 mg): 1.43
- (%) of patients with response ([2]; AZD9833 75 mg): (15.7) %
- Number of patients with response ([2]; AZD9833 150 mg, N=65 with measurable disease): 13
- Adjusted response rate (%) ([2]; AZD9833 150 mg): 20.3%
- ORR: comparison against fulvestrant, odds ratio ([2]; AZD9833 150 mg): 1.96
- (%) of patients with response ([2]; AZD9833 150 mg): (20.0) %

— patent US20240180893A1, “METHODS OF TREATMENT OF BREAST CANCER” (AstraZeneca AB, priority 2022, published 2024)
